Source: patent publication US9837801B2, “Gas-insulated medium or high-voltage electrical apparatus including carbon dioxide, oxygen, and heptafluoro-isobutyronitrile” (Alstom Technology Ltd., priority 2013, dated 2017)

Experiment: Toxicity (LC50, lethal concentration 50%)
Assay type: in vivo
Description: In addition, […], toxicity is further reduced by […], which classifies it in the field of gases considered to be “practically non-toxic” (toxicity classification 5, according to the Hodge and Sterner toxicity scale).

SMILES: N#CC(F)(C(F)(F)F)C(F)(F)F [Heptafluoroisobutyronitrile, 2,3,3,3-tetrafluoro-2-trifluoromethyl propanenitrile]
- specific toxicity for humans (humans): no specific toxicity
- LC50 (lethal concentration, 50%) (pure heptafluoroisobutyronitrile): greater than 15,000 ppm
